From patent US11773078B2, “Furin inhibitors” (Glaxosmithkline Intellectual Property Development Limited, priority 2018, dated 2023)
Structures can show the parent of a compound that is named as a salt.

Key:
[1] = biological target: T1, Furin (108-574-Tev-Flag-His) enzyme (Homo sapiens, UniProt P09958); assay: Furin enzyme assay; assay type: biochemical
T1 construct: Furin (108-574-Tev-Flag-His) enzyme was expressed and purified from CHO cells; TEV cleavage site (C); FLAG (C); His (C); made in house; host or cells: CHO cells
Outline: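 CHO-expressed, purified furin construct at 40 pM in 100 mM HEPES pH7.5, 1 mM CaCl2, 0.005% Triton X-100. Eleven-point 1:3 series, 0.00017–10 μM final, incubated 2 h at room temperature and read on Envision. pXC50 from four-parameter fit.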

[2] = biological target: T2, furin (endogenous protease) in U20S cells (Homo sapiens, UniProt P09958); assay: Furin cell-based assay (image-based, Golgi-targeted GFP with BMP10 furin/PCSK cleavage site); settings: 24-hour incubation, read-out: furin golgi cell pXC50 (converted);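 further: Read-out is mean GFP fluorescence of Golgi puncta per cell by high-content imaging, retained when furin inhibited, over an eleven-point 0.00017–10 µM series, four-parameter fit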
T2 construct: the endogenous protease cleaves GFP; endogenous in cells; host or cells: U2OS cells transduced with a BacMam reporter
T2 sequence (P09958 108-794): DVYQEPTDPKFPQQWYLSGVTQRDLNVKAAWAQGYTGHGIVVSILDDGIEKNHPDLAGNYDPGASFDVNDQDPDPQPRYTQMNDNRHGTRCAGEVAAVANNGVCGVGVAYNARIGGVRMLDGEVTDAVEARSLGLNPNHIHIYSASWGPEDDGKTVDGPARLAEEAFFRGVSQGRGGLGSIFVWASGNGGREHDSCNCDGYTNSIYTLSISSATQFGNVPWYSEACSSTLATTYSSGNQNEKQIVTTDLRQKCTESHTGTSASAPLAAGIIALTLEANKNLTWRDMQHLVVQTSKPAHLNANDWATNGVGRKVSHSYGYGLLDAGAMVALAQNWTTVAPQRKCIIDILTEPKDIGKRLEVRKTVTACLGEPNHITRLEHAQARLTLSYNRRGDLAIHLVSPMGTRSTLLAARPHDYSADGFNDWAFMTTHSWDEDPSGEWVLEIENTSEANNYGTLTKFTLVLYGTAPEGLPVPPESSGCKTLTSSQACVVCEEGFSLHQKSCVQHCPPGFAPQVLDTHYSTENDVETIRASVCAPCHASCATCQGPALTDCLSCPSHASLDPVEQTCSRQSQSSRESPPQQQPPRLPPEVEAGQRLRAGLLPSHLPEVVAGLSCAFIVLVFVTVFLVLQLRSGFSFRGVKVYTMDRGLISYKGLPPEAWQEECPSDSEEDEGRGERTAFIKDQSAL

T1 sequence (P09958 108-574): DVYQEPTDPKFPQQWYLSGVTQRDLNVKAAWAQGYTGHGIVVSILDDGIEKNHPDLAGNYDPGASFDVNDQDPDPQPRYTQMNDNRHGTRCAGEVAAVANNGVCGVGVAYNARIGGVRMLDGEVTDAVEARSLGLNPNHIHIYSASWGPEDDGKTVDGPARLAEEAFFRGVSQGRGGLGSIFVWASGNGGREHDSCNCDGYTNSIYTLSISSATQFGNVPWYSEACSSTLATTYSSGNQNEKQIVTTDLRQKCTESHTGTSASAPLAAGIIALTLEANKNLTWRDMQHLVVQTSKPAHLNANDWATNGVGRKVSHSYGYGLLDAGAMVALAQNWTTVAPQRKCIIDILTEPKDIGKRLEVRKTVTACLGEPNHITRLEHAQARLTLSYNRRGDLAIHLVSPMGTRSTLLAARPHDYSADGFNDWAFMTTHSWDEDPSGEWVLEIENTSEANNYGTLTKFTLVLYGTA

furin enzyme pIC50 [1]	EC50 [2] [µM]	Structure (SMILES)
8.7	0.0126	CN1CCN(c2ncc(Oc3cc(CN4CCC(CCB(O)O)CC4)cc(-c4cc(Cl)cc(Cl)c4)n3)cn2)CC1 [Example 323, (2-(1-((2-(3,5-dichlorophenyl)-6-((2-(4-methylpiperazin-1-yl)pyrimidin-5-yl)oxy)pyridin-4-yl)methyl)piperidin-4-yl)ethyl)boronic acid]
8.3	0.0158	CC(=O)NC(=O)OCC1CCN(Cc2cc(Oc3cnc(N4CCN(C)CC4)nc3)nc(-c3cc(Cl)cc(Cl)c3)c2)CC1 [Example 324]
8.3	0.0126	CN1CCN(c2ncc(Oc3cc(CN4CCC(NC(=O)NS(C)(=O)=O)CC4)cc(-c4cc(Cl)cc(Cl)c4)n3)cn2)CC1 [Example 328, N-((1-((2-(3,5-dichlorophenyl)-6-((2-(4-methylpiperazin-1-yl)pyrimidin-5-yl)oxy)pyridin-4-yl)methyl)piperidin-4-yl)carbamoyl)methanesulfonamide]
8	0.01	CN1CCN(c2ncc(Oc3cc(CN4CCO[C@H](CO)CC4)cc(-c4cc(Cl)cc(Cl)c4)n3)cn2)CC1 [Example 330, (S)-(4-((2-(3,5-Dichlorophenyl)-6-((2-(4-methylpiperazin-1-yl)pyrimidin-5-yl)oxy)pyridin-4-yl)methyl)-1,4-oxazepan-7-yl)methanol, 4 hydrochloride]
9.1	0.00398	COC(=O)NCC1CCN(Cc2cc(Oc3cnc(N4CCN5CCC4C5)nc3)nc(-c3cc(Cl)cc(Cl)c3)c2)CC1 (centres unmarked) [Example 336, methyl ((1-((2-((2-(1,4-diazabicyclo[3.2.1]octan-4-yl)pyrimidin-5-yl)oxy)-6-(3,5-dichlorophenyl)pyridin-4-yl)methyl)piperidin-4-yl)methyl)carbamate]
9	0.00794	O=C(O)[C@H]1[C@@H]2CCN(Cc3cc(Oc4cnc(N5CCN6CCC5C6)nc4)nc(-c4cc(Cl)cc(Cl)c4)c3)CC[C@@H]21 (stereo partly drawn) [Example 337, (1R,7S,8r)-4-((2-((2-(1,4-diazabicyclo[3.2.1]octan-4-yl)pyrimidin-5-yl)oxy)-6-(3,5-dichlorophenyl)pyridin-4-yl)methyl)-4-azabicyclo[5.1.0]octane-8-carboxylic acid]

Continued, compound first:

Structure (SMILES)	furin enzyme pIC50 [1]	EC50 [2] [µM]
C[C@@H](O)CN1CCN(c2ncc(Oc3cc(CN4CCC(OCC(=O)O)CC4)cc(-c4cc(Cl)cc(Cl)c4)n3)cn2)CC1 [Example 317, (R)-2-((1-((2-(3,5-dichlorophenyl)-6-((2-(4-(2-hydroxypropyl)piperazin-1-yl)pyrimidin-5-yl)oxy)pyridin-4-yl)methyl)piperidin-4-yl)oxy)acetic acid]	9.2	0.0158
CN1CCN(c2ncc(Oc3cc(CN4CCC(CB(O)O)CC4)cc(-c4cc(Cl)cc(Cl)c4)n3)cn2)CC1 [Example 318, ((1-((2-(3,5-Dichlorophenyl)-6-((2-(4-methylpiperazin-1-yl)pyrimidin-5-yl)oxy)pyridin-4-yl)methyl)piperidin-4-yl)methyl)boronic acid, 4 hydrochloride]	8.9	0.01
CC(=O)NCC1CCN(Cc2cc(Oc3cnc(N4CCN(CCB(O)O)CC4)nc3)nc(-c3cc(Cl)cc(Cl)c3)c2)CC1 [Example 319, (2-(4-(5-((4-((4-(Acetamidomethyl)piperidin-1-yl)methyl)-6-(3,5-dichlorophenyl)pyridin-2-yl)oxy)pyrimidin-2-yl)piperazin-1-yl)ethyl)boronic acid, 4 hydrochloride]	8.9	0.001
CN1CCN(c2ncc(Oc3cc(CN4CCC(CP(C)(C)=O)CC4)cc(-c4cc(Cl)cc(Cl)c4)n3)cn2)CC1 [Example 320, ((1-((2-(3,5-Dichlorophenyl)-6-((2-(4-methylpiperazin-1-yl)pyrimidin-5-yl)oxy)pyridin-4-yl)methyl)piperidin-4-yl)methyl)dimethylphosphine oxide, 4 hydrochloride]	8.2	0.0126
CN1CCCN(c2ncc(Oc3cc(CN4CCC(CB(O)O)CC4)cc(-c4cc(Cl)cc(Cl)c4)n3)cn2)CC1 [Example 322, ((1-((2-(3,5-dichlorophenyl)-6-((2-(4-methyl-1,4-diazepan-1-yl)pyrimidin-5-yl)oxy)pyridin-4-yl)methyl)piperidin-4-yl)methyl)boronic acid]	8.9	0.00631
COC(=O)NC(=O)NCC1CCN(Cc2cc(Oc3cnc(N4CCN(C)CC4)nc3)nc(-c3cc(Cl)cc(Cl)c3)c2)CC1 [Example 325]	8.3	0.00631
CN1CCN(c2ncc(Oc3cc(CN4CCC(CNC(=O)NS(C)(=O)=O)CC4)cc(-c4cc(Cl)cc(Cl)c4)n3)cn2)CC1 [Example 326, N-(((1-((2-(3,5-dichlorophenyl)-6-((2-(4-methylpiperazin-1-yl)pyrimidin-5-yl)oxy)pyridin-4-yl)methyl)piperidin-4-yl)methyl)carbamoyl)methanesulfonamide]	8.7	0.0126
CC(=O)NC(=O)NCC1CCN(Cc2cc(Oc3cnc(N4CCN(C)CC4)nc3)nc(-c3cc(Cl)cc(Cl)c3)c2)CC1 [Example 327]	8.6	0.00316
CN1CCN(c2ncc(Oc3cc(CN4CCC(NC(N)=O)CC4)cc(-c4cc(Cl)cc(Cl)c4)n3)cn2)CC1 [Example 329, 1-(1-((2-(3,5-dichlorophenyl)-6-((2-(4-methylpiperazin-1-yl)pyrimidin-5-yl)oxy)pyridin-4-yl)methyl)piperidin-4-yl)urea]	8.2	0.0158
CN1CCN(c2ncc(Oc3cc(CN4CCC(P(C)(C)=O)CC4)cc(-c4cc(Cl)cc(Cl)c4)n3)cn2)CC1 [Example 331, (1-((2-(3,5-Dichlorophenyl)-6-((2-(4-methylpiperazin-1-yl)pyrimidin-5-yl)oxy)pyridin-4-yl)methyl)piperidin-4-yl)dimethylphosphine oxide, 4 hydrochloride]	7.8	0.02
CN1CCN(c2ncc(Nc3cc(CN4CCC(CC(=O)O)CC4)cc(-c4cc(Cl)cc(Cl)c4)n3)cn2)CC1 [Example 332, 2-(1-((2-(3,5-Dichlorophenyl)-6-((2-(4-methylpiperazin-1-yl)pyrimidin-5-yl)amino)pyridin-4-yl)methyl)piperidin-4-yl)acetic acid, 4 hydrochloride]	8.3	0.0501
Cc1c(CN2CCC(CC(=O)O)CC2)cc(-c2cc(Cl)cc(Cl)c2)nc1Oc1cnc(N2CCN(C)CC2)cn1 [Example 333, 2-(1-((6-(3,5-Dichlorophenyl)-3-methyl-2-((5-(4-methylpiperazin-1-yl)pyrazin-2-yl)oxy)pyridin-4-yl)methyl)piperidin-4-yl)acetic acid]	8.7	0.0126
CC(=O)NCC1CCN(Cc2cc(Oc3cnc(N4CC5CCC(C4)N5)nc3)nc(-c3cc(Cl)cc(Cl)c3)c2)CC1 [Example 335, N-((1-((2-((2-(3,8-diazabicyclo[3.2.1]octan-3-yl)pyrimidin-5-yl)oxy)-6-(3,5-dichlorophenyl)pyridin-4-yl)methyl)piperidin-4-yl)methyl)acetamide]	9.2	0.00126
